These results are taken from patent publication US20220380383A1, “NEUROPROTECTIVE PDI MODULATING SMALL MOLECULES AND METHODS OF USE THEREOF” (THE TRUSTEES OF COLUMBIA UNIVERSITY IN THE CITY OF NEW YORK, priority 2018, published 2022).

Molecules are shown by their SMILES. “Also recorded” adds a separate entry of the source.

For data set [1], the system named is cortical pyramidal neurons in rat coronal brain slice explants co-transfected with YFP and Tau-4R. Put plainly: AD brain slice model (Tau-4R). The class given is cell-based. The source says:
The cortical regions of each brain slice were then scored for numbers of healthy pyramidal neurons remaining. Data are plotted as means±SEM. Graph represents an average of 3 independent experimental runs. Significant difference is denoted with * with respect to the Tau-4R condition by ANOVA followed by Dunnett's post hoc comparison test at p<0.05.
To see if the mechanism of LOC14 protection can ameliorate other neurodegenerative disease phenotypes, we used a brain slice model of Alzheimer's disease (AD) in which the degeneration of cortical pyramidal neurons is induced via transfected tau protein containing four repeats of the microtubulin-binding domain (Tau-4R). Rat coronal brain slice explants were co-transfected with YFP and Tau-4R and treated with LOC14, benzoisothiazolone, or DMSO vehicle-only for 3 days. The cortical region of each brain slice was then scored for number of healthy pyramidal neurons remaining.

Another data set has as its target PDI (Homo sapiens, UniProt P07237). Put plainly: Enzymatic assay for inhibition of PDI using insulin as substrate. In kind it is biochemical.
In another data set the target is T1, wild-type PDIa (Homo sapiens, UniProt P07237).
T1 construct: made in house; host or cells: Escherichia coli BL21-Gold (DE3)
Put plainly: MALDI-TOF mass spectrometry with wild-type PDIa. In kind it is binding. From the text: As mentioned, we synthesized several fluorine-containing analogs of LOC14 (analogs LC-43 and LC-40). Addition of fluorine was the only modification that was tolerated at the ortho position without a complete loss of activity in cells and in targeting PDI in vitro (Table 9). […] We hypothesized that these compounds might be binding to PDI covalently, and therefore would not show heat evolution by calorimetry. To test this hypothesis, we conducted MALDI-TOF mass-spectrometry experiments with wild-type PDIa and LC-43. […] This confirmed that LC-43 did indeed bind to PDIa, and that this binding was […]. The lack of binding by ITC might be again caused because LC-43 interaction with PDI is entropy-driven with small enthalpic changes. […] Additionally, we evaluated LC-43 using a genetically encoded redox reporter transfected into neurons. […] In contrast, treatment with the non-selective reducing agent dithiothreitol (DTT) produces an immediate and dramatic reduction in the roGFP2 fluorescence ratio that leads rapidly to cell degeneration and death (FIG. 16D). […] This single fluorine atom substitution in LOC14 structure seems to be an improvement in the design of compounds with more favorable drug properties.

Another data set concerns five isoforms of CYP450. Put plainly: CYP450 inhibition, five isoforms. The class given is in vitro ADME.
Data set [2] has as its system uninduced PC12 cells not expressing mHTTQ103. Put plainly: General cell toxicity in PC12 cell culture assay. The class given is cell-based. Here is the method:
Neuroprotection was assessed by each compound's ability to rescue cells from mutant-huntingtin-induced cell death (“Ind Q103” cells; blue). General cell toxicity of each compound was assessed in uninduced cells not expressing mutant-huntingtin protein (“Unind Q103” cells; red). NMP, DMSO, LOC14 in NMP and LOC14 in DMSO were used as controls.
Data from cells induced to express mHTT^Q103 (blue) and cells not expressing mHTT^Q103 (red) are plotted as mean percent of DMSO-treated uninduced cells±SD with n=3.
The follow-up testing of primary screen hits was performed in a similar way. Fresh powder stocks of primary hits were re-ordered from vendors, dissolved in DMSO and tested in a two-fold serial dilution across 10 wells in both tebufenozide-induced and uninduced PC12 mHTT^Q103 cells. Dose-response curves were plotted as mean±SD and fit to either four-parameter sigmoidal (for uninduced cells) or bell-shaped (induced) function using Prism (GraphPad Software).

Data set [3] concerns the target Serotonin (5-Hydroxytryptamine) 5-HT2B (Homo sapiens, UniProt P41595). Put plainly: Off-target panel, Serotonin 5-HT2B. In kind it is binding. As to conditions: Conc. 3 μM.
In another data set the target is Adrenergic β2 (Homo sapiens, UniProt P07550). Put plainly: Off-target panel, Adrenergic β2. In kind it is binding. The conditions noted are these: Conc. 3 μM.
Another data set has as its target T2, LCK (Homo sapiens, UniProt P06239).
T2 construct: CEREP (CRO, Safety47 panel)
Put plainly: Safety47 panel kinase LCK. In kind it is biochemical. As to conditions: Inhibitor mode; 3 μM. From the text: (§1) LOC14 was also submitted for testing in CEREP's Safety47 panel. CEREP is a CRO specializing in preclinical research, discovery and development of new pharmaceutical drugs.

The target in another data set is T3, NET (Homo sapiens, UniProt P23975).
T3 construct: CEREP (CRO panel)
Put plainly: Safety47 panel transporter NET. In kind it is cell-based. The conditions noted are these: Blocker mode; 3 μM.
From the text: as §1

In another data set the target is T4, HTR3A (Homo sapiens, UniProt P46098).
T4 construct: CEREP (CRO panel)
Put plainly: Safety47 panel ion channel HTR3A. In kind it is cell-based. The conditions noted are these: 3 μM.
From the text: as §1

A further data set deals with Adrenergic α1B (Rattus norvegicus, UniProt P15823). Put plainly: Off-target panel, Adrenergic α1B. In kind it is binding. The conditions noted are these: Conc. 3 μM.
Another data set deals with Adenosine A2A (Homo sapiens, UniProt P29274). Put plainly: Off-target panel, Adenosine A2A. In kind it is binding. The conditions noted are these: Conc. 3 μM.
For data set [4] the following is noted: cited from earlier work.
For a further data set, the target named is T5, ADORA2A (Homo sapiens, UniProt P29274).
T5 construct: CEREP (CRO that ran the panel)
Put plainly: Safety47 panel GPCR ADORA2A. The class given is cell-based. As to conditions: 3 μM.
From the text: as §1

In another data set the test system is 47 human targets. Put plainly: CEREP Safety47 panel (summary). The conditions noted are these: 3 μM.
From the text: as §1

The target in a further data set is Sigma σ1 (Homo sapiens, UniProt Q99720). Put plainly: Off-target panel, Sigma σ1. As to conditions: Conc. 3 μM. The class given is binding.
The target of another data set is T6, PDE3A (Homo sapiens, UniProt Q14432).
T6 construct: CEREP (CRO panel)
Put plainly: Safety47 panel non-kinase enzyme PDE3A. The class given is biochemical. The conditions noted are these: Inhibitor mode; 3 μM.
From the text: as §1

A further data set concerns the target Cannabinoid CB1 (Homo sapiens, UniProt P21554). Put plainly: Off-target panel, Cannabinoid CB1. As to conditions: Conc. 3 μM. The class given is binding.
The target of the next data set is Adenosine A1 (Homo sapiens, UniProt P30542). Put plainly: Off-target panel, Adenosine A1. The class given is binding. The conditions noted are these: Conc. 3 μM.
For a further data set, the target named is T7, NAV1.5 (Homo sapiens, UniProt Q14524).
T7 construct: CEREP (CRO panel)
Put plainly: Safety47 panel ion channel NAV1.5. The class given is cell-based. As to conditions: Blocker mode; 3 μM.
From the text: as §1

The next data set concerns the target T8, KvLQT1/minK (Homo sapiens, UniProt P51787).
T8 construct: CEREP (CRO panel)
Put plainly: Safety47 panel ion channel KvLQT1/minK. The class given is cell-based. As to conditions: 3 μM.
From the text: as §1

A further data set concerns the target T9, CAV1.2 (Homo sapiens, UniProt Q13936).
T9 construct: CEREP (CRO panel)
Put plainly: Safety47 panel ion channel CAV1.2. In kind it is cell-based. As to conditions: Blocker mode; 3 μM.
From the text: as §1

T5 sequence (P29274 whole entry): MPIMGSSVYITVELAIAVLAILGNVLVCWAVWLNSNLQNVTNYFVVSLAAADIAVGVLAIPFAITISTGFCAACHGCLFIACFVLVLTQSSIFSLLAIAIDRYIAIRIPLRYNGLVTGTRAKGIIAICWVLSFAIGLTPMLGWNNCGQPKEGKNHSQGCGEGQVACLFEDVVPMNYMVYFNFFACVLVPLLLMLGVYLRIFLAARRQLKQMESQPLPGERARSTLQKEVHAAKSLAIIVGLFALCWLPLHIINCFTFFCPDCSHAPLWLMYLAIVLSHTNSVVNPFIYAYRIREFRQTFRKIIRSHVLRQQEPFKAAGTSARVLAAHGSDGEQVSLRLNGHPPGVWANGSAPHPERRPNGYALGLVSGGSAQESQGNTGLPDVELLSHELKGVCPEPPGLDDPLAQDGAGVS
T4 sequence (P46098 24-478): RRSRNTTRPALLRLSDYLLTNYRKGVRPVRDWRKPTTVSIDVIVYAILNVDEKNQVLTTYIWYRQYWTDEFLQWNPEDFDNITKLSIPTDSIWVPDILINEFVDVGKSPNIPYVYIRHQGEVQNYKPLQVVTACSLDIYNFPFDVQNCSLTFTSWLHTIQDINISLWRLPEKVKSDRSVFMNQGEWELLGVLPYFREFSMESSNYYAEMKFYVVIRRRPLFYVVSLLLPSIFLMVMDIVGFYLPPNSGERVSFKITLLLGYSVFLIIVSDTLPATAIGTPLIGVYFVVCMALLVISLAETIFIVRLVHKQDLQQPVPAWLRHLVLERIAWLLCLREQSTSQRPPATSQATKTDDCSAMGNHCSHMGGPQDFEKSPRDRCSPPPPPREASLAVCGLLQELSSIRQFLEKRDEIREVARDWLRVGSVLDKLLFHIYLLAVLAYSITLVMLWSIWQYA
T6 sequence (Q14432 whole entry): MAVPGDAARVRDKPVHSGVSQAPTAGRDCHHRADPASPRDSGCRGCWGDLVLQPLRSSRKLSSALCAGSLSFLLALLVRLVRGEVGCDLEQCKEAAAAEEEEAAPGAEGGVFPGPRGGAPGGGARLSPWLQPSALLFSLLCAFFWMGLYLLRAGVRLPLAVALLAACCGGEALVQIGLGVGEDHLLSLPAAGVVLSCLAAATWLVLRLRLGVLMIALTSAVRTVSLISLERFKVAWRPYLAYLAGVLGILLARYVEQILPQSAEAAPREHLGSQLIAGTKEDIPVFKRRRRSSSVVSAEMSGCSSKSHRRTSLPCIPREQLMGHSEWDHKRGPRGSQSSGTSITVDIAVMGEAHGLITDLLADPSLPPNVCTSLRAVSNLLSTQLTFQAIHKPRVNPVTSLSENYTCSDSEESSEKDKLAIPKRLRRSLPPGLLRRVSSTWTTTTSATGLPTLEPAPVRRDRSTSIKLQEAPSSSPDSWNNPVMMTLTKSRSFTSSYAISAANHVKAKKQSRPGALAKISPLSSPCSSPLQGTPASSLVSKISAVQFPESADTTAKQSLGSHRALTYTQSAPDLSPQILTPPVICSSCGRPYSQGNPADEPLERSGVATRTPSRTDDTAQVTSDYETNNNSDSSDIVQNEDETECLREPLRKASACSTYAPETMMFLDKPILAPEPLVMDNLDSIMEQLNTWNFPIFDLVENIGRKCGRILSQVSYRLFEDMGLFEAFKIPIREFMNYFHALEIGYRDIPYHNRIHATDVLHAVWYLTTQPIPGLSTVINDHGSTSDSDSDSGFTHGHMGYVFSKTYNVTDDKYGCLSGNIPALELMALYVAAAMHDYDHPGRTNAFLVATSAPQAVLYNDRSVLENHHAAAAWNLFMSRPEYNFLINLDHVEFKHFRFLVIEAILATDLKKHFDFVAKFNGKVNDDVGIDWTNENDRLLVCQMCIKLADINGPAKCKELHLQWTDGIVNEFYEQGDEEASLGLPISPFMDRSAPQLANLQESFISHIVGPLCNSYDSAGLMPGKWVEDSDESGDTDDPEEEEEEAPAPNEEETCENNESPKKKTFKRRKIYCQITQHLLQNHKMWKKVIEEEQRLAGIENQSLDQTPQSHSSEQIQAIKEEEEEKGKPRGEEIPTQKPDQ
T7 sequence (Q14524 whole entry): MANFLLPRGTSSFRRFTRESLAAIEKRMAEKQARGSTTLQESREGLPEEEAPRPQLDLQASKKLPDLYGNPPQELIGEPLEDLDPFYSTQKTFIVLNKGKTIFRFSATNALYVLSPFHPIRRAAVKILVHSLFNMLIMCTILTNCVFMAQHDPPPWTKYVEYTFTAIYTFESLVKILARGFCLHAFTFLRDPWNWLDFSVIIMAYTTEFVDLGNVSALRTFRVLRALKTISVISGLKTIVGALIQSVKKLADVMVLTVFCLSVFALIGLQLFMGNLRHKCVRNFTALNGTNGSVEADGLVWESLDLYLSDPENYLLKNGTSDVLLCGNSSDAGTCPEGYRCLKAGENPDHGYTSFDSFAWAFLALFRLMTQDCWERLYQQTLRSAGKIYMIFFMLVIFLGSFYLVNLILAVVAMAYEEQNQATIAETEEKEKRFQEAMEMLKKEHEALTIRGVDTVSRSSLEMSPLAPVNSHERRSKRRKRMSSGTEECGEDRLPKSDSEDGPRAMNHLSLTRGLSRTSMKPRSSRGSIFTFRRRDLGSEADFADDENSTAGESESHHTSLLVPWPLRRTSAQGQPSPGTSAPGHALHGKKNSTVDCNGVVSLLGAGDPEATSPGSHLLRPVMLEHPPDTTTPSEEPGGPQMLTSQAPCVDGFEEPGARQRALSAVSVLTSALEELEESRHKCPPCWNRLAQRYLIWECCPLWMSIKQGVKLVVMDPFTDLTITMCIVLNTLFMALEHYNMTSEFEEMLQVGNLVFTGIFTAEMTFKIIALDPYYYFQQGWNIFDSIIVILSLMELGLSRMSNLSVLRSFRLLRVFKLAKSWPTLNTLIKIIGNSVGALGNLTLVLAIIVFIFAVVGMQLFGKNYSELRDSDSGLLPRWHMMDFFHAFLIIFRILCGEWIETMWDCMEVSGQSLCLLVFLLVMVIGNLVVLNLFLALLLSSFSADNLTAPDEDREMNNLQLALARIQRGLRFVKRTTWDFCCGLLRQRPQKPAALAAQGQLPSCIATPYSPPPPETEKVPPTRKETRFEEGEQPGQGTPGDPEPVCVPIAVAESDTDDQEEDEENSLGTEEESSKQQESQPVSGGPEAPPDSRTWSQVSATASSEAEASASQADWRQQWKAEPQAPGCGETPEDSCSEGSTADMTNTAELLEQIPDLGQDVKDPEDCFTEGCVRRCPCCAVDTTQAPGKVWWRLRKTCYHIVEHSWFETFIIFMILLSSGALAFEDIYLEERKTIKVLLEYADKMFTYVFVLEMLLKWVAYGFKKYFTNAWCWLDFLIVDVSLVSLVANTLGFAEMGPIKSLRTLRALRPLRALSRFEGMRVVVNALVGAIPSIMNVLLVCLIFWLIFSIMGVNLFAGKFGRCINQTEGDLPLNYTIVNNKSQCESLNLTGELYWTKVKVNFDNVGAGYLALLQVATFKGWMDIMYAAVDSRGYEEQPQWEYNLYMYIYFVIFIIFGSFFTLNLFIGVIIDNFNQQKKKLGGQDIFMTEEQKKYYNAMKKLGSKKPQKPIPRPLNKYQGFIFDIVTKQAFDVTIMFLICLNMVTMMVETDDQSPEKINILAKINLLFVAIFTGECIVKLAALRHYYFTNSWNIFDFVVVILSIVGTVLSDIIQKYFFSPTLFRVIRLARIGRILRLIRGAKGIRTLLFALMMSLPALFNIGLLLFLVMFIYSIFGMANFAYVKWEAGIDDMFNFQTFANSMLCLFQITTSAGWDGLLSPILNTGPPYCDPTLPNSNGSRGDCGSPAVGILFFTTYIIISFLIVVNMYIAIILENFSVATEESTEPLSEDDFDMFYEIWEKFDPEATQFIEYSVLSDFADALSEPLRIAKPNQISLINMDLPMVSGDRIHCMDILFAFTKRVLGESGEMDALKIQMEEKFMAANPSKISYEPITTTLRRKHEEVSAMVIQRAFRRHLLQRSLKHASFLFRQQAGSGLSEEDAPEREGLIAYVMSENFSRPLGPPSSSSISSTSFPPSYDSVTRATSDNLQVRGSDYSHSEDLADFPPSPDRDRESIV
Adenosine A2A, sequence (P29274 whole entry): as the sequence (P29274 whole entry) above
Adrenergic β2, sequence (P07550 whole entry): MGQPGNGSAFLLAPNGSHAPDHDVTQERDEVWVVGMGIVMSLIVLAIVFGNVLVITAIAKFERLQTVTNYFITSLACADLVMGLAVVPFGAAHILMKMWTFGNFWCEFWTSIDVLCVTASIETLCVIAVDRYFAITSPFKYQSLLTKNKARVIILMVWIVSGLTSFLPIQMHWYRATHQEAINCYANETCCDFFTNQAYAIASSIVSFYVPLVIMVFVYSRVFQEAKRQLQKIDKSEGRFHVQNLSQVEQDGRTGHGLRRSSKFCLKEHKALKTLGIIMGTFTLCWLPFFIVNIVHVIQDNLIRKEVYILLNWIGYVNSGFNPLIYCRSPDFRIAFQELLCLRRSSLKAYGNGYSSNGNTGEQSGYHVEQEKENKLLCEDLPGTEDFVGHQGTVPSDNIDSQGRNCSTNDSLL
T1 sequence (P07237 18-134): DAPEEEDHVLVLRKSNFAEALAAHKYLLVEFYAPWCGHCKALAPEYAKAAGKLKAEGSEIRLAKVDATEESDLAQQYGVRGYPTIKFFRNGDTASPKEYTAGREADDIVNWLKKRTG
Sigma σ1, sequence (Q99720 whole entry): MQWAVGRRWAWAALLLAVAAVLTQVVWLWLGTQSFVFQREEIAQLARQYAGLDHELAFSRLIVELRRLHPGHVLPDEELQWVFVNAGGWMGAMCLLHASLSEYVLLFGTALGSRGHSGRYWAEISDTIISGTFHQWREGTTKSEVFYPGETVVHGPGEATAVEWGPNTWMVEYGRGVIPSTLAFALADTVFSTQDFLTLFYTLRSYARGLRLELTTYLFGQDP

`O=C(C1CC1)N1CCN(Cn2sc3c(F)cccc3c2=O)CC1` [LC-43]: the “protection of pyramidal neurons in AD brain slice” value in data set [1] (3 days treatment) was “dose-dependent rescue; also recorded: robust neuroprotection”. Further, the “concentration that provided peak rescue” value in [1] (AD brain slice assay) was 10 µM. Besides, the “inhibition of enzymatic (reductase) activity of PDI” value at PDI is “able to inhibit the enzymatic activity of PDI”. Also, the “change in mass of wild-type PDIa (MALDI-TOF)” value on wild-type PDIa is on record as “no change in mass”. Also, the “inhibition of the five isoforms of CYP450” value with five isoforms of CYP450 is listed as “does not show any inhibition”. The “toxicity in PC12 cell culture assay” value in [2] is on record as “decreased cellular toxicity”.
As a reminder, the inhibition is the drop in the measured response relative to a control, in per cent. As for `O=C(C1CC1)N1CCN(Cn2sc3ccccc3c2=O)CC1` [LOC14], the inhibition at 3 µM in data set [3] was 36%; against Adrenergic β2, 8%; at Adrenergic α1B, 2%; on Adenosine A2A it was -4%; on Sigma σ1, -8%; at Cannabinoid CB1, -22%. Further, the inhibition at 3 µM on Adenosine A1 is 8%. For the same compound, the Average at LCK came to 16.1; on NET, 0.0; at HTR3A (Blocker mode), 0.0; at HTR3A (Opener mode) it was 2.5; on PDE3A, 0.0; at NAV1.5 it was 7.0. Further, the Average was 0.0 at KvLQT1/minK (Blocker mode), 9.8 at KvLQT1/minK (Opener mode) and 1.2 at CAV1.2. The tolerated dose in [4] (in mice) is listed as 20 mg/kg. For the same compound, in data set [4] (mouse, in vivo, po), the oral bioavailability entry was “orally bioavailable”. Moreover, the blood-brain-barrier penetration entry in data set [4] (mouse, in vivo) is listed as “blood-brain-barrier penetrant”. The “half-life in the brain” value in data set [4] (via oral gavage) is 2.2 h. Further, the “Average % Response” value at ADORA2A (Agonist mode) came to 2.6%; at ADORA2A (Antagonist mode), 2.4%. Also, the “off-target effects in Safety47 panel” value in the data set with 47 human targets was “no significant off-target effects”.
